The values below come from US20070232625A1, “Fungicidal Mixtures” (priority 2004, published 2007).

The subject of this assay is Alternaria solani. The assay is described as follows: Activity against early blight of tomato caused by Alternaria solani (protective spray test on potted tomato plants). The format is in vivo. Conditions: tomato cultivar Golden Princess, evaluated after 5 days. As to the method:
The active compounds, separately or jointly, were prepared as a stock solution comprising 0.25% by weight of active compound in acetone or DMSO. 1% by weight of the emulsifier Uniperol® EL (wetting agent having emulsifying and dispersant action based on ethoxylated alkylphenols) was added to this solution, and the mixture was diluted with water to the desired concentration.
Leaves of potted plants of the cultivar “Golden Princess” were sprayed to runoff point with an aqueous suspension having the concentration of active compound stated below. The next day, the leaves were infected with an aqueous spore suspension of Alternaria solani in a 2% strength biomalt solution having a density of 0.17×10^6 spores/ml. The plants were then placed in a water-vapor-saturated chamber at temperatures between 20 and 22° C. After 5 days, the disease on the untreated but infected control plants had developed to such an extent that the infection could be determined visually in %.
The visually determined percentages of infected leaf areas were converted into efficacies in % of the untreated control:
The efficacy (E) is calculated as follows using Abbot's formula: E=(1−α/β)·100 • α corresponds to the fungal infection of the treated plants in % and • β corresponds to the fungal infection of the untreated (control) plants in %
An efficacy of 0 means that the infection level of the treated plants corresponds to that of the untreated control plants; an efficacy of 100 means that the treated plants were not infected.
The expected efficacies of mixtures of active compounds were determined using Colby's formula (Colby, S. R. “Calculating synergistic and antagonistic responses of herbicide combinations”, Weeds, 15, 20-22, 1967) and compared with the observed efficacies.
Colby's formula: E=x+y−x·y/100 • E expected efficacy, expressed in % of the untreated control, when using the mixture of the active compounds A and B at the concentrations a and b • x efficacy, expressed in % of the untreated control, when using the active compound A at the concentration a
y efficacy, expressed in % of the untreated control, when using the active compound B at the concentration b

Turning to `CC1CCN(c2c(-c3c(F)cc(F)cc3F)c(Cl)nc3ncnn23)CC1` [I, 5-chloro-7-(4-methylpiperidin-1-yl)-6-(2,4,6-trifluorophenyl)-[1,2,4]triazolo[1,5-a]pyrimidine], the “Efficacy in % of the untreated control” value is, setting by setting: (1.25 ppm active compound in the spray liquor) 0%; (5 ppm active compound in the spray liquor, infected next day) 22%.
For `CO/N=C(\Cc1cccnc1)c1cc(Cl)cc(Cl)c1` [II (pyrifenox), 1-(3,5-dichlorophenyl)-2-pyridin-3-ylethanone-O-methyloxime], the “Efficacy in % of the untreated control” value runs as follows: (1 ppm active compound in the spray liquor) 0%; (6.25 ppm active compound in the spray liquor) 0%.
